Experimental data published in PMC8406801, “Naringenin Inhibits Platelet Activation and Arterial Thrombosis Through Inhibition of Phosphoinositide 3-Kinase and Cyclic Nucleotide Signaling” (Frontiers in Pharmacology, 2021).
Values joined by “and” are separate entries in the source; they are usually repeats but may differ in a detail not shown here. Identical values can stand only once.

Experiments:
washed rat platelets [1] = assay: ADP (10 μM)-induced aggregation of washed rat platelets; type: cell-based; conditions: for ADP-induced platelet aggregation (control group taken as 100%): mean ± SD, n = 6
Procedure: Platelet-rich plasma (PRP) was obtained, and after the addition of 100 ng/ml PGE1, platelets were pelleted at 900 × g for 10 min. […] Washed platelets were preincubated with vehicle (0.4% dimethyl sulfoxide) or various concentrations of naringenin in the presence of 2 mM CaCl2 for 5 min at 37°C, and then further stimulated by ADP (10 μM), thrombin (0.2 U/mL) or collagen (2 μg/ml). The maximum platelet aggregation rate was detected within 5 min with continuous stirring.
Platelet aggregation was induced by ADP using washed platelets and PRP. Washed platelets were preincubated with vehicle (containing 0.4% DMSO) or different doses (100, 200, 400, and 800 μM) of naringenin or naringin for 5 min before activation with ADP (10 μM) for 5 min.
(§1) FIGURE 1 Effects of naringenin and naringin on platelet aggregation. Chemical structure of naringin (A) and naringenin (B). The effects of naringin (C) or naringenin (D) on PRP were measured following stimulation with 10 μmol/L ADP. Rat washed platelet aggregation performed with or without different concentrations of naringin (E) or naringenin (F) was recorded after stimulation with 10 μmol/L ADP. Similarly, Washed platelet aggregation performed with vehicle or various concentrations of naringenin was recorded after stimulation with 0.2 U/mL thrombin (G) or 2 μg/ml collagen (H). WP represents washed platelets. Data are expressed as means ± SD (n = 6), the level of aggregation obtained at 5 min with vehicle-treated samples (0 μM) was taken as 100%. *p < 0.05, **p < 0.01, ***p < 0.001 compared with the vehicle control group.

washed rat platelets [2] = assay: Collagen (2 μg/ml)-induced aggregation of washed platelets; type: cell-based; conditions: for Aggregation (%) / Aggregation % of control: washed platelets, single replicates; for Aggregation (%): raw data
Procedure: Washed rat platelets were prepared as described previously ([Gao et al., 2011]) with a minor modification. Briefly, rat blood was drawn from the abdominal aorta into the siliconized vacutainers containing 1:9 (v/v) 3.8% sodium citrate, supplemented with 100 ng/ml prostaglandin E1 (PGE1) and centrifuged at 300 × g for 6 min at room temperature. Platelet-rich plasma (PRP) was obtained, and after the addition of 100 ng/ml PGE1, platelets were pelleted at 900 × g for 10 min. Platelets were washed once in Tyrode’s buffer (12 mM NaHCO3, 138 mM NaCl, 5.5 mM glucose, 2.9 mM KCl, 2 mM MgCl2, 0.42 mM NaH2PO4, 10 mM HEPES, pH 7.4) containing 100 ng/ml PGE1, and finally resuspended in Tyrode’s buffer containing 0.02 U/mL apyrase to a final concentration of 4×10^8 cells/mL. Washed platelets were preincubated with vehicle (0.4% dimethyl sulfoxide) or various concentrations of naringenin in the presence of 2 mM CaCl2 for 5 min at 37°C, and then further stimulated by ADP (10 μM), thrombin (0.2 U/mL) or collagen (2 μg/ml). The maximum platelet aggregation rate was detected within 5 min with continuous stirring.
as §1

[3] = test system: integrin αIIbβ3 inside-out signaling (fibrinogen binding) in washed platelets; assay: ADP-stimulated fibrinogen binding (flow cytometry); type: cell-based, rat; conditions: ADP 10 μM; for Fibrinogen binding (%): single replicates; for fibrinogen binding: mean ± SD, n = 3, 55.67 ± 9.62% with ADP alone
Procedure: Flow cytometric assays were performed as described previously ([Wang et al., 2019]). ADP-stimulated P-selectin exposure and fibrinogen binding were determined in washed platelets. […] The platelets were immediately incubated with PE-labeled CD62P or FITC-labeled fibrinogen in the dark at room temperature for 15 min. The cells were finally fixed with 1% (v/v) paraformaldehyde prior to analysis using an Accuri C6 flow cytometer (BD Biosciences, United States).

ERK1/2 phosphorylation = assay: Immunoblotting of phospho-ERK1/2 (Thr202/Tyr204) in ADP-stimulated washed platelets; type: cell-based, rat; conditions: ADP 10 μmol/L, single replicates; for p-ERK1/2 / t-ERK: raw data
Procedure: For in vitro platelet aggregation, aliquots of washed platelets were preincubated with vehicle or various concentrations of naringenin for 5 min and stimulated with ADP (10 μmol/L) under stirring at 37°C for 5 min. For ex vivo platelet aggregation, PRP was incubated at 37°C for 5 min and stimulated with ADP (5 μmol/L) under stirring at 37 °C. The platelet aggregation was terminated by adding ethylenediaminetetraacetic acid (EDTA; 10 mM). Total protein was prepared using RIPA lysis buffer and protein content was determined by bicinchoninic acid (BCA) protein assay kit. Equal amounts of platelet proteins (30 μg) were separated on 10% SDS polyacrylamide gel electrophoresis (SDS-PAGE) and then transferred to poly vinylidene difluoride (PVDF) membranes and subjected to western blot. Blots were blocked with TBS-Tween 20 containing 5% BSA and probed with primary antibodies diluted in blocking solution at 4°C overnight followed by incubation with the corresponding HRP secondary antibodies. The protein bands were visualized using enhanced chemiluminescence (ECL).
FIGURE 4 Naringenin inhibits PI3K-mediated signaling in ADP-induced platelets. Washed rat platelets were preincubated without or with naringenin at 37°C for 5 min, and then stimulated with ADP (10 μmol/L) under stirring for 5 min. Platelet proteins were then extracted and analyzed by immunoblotting using PI3Kp110β antibody (A) and phospho-specific antibodies such as Akt^Ser473 (B), Akt^Thr308 (C), ERK1/2^Thr202/Tyr204 (D) and GSK3β^Ser9 (E). Total level of GAPDH was measured on each sample as a loading control. The blots shown are representative of three separate experiments. The relative protein expression levels were quantified by ImageJ 1.47v software. The level of relative protein expression obtained with vehicle control (0 μM) was taken as 1. R represents the level of relative protein expression in resting platelets. Data are expressed as means ± SD (n = 3). *p < 0.05, **p < 0.01, ***p < 0.001 compared with the vehicle control group.

O=C1C[C@@H](c2ccc(O)cc2)Oc2cc(O)cc(O)c21 [Naringenin]
IC50 (washed rat platelets [1]; ADP 10 μM): ~118 µM
reduction of aggregation of washed platelets (washed rat platelets [1]; ADP-induced, 100 μM): 45%
Aggregation (%) (washed rat platelets [1]; Figure 5A: washed platelets, ADP 10 μM, naringenin 200 μM alone, single replicates): 38.3% and 37.5% and 34.7% and 44.0% and 29.6% and 42.4%
IC50 (washed rat platelets [1]; Rattus norvegicus, Platelet, ADP 10 μM): 118 ± 10.4 µM
activity at 100 µM (washed rat platelets [1]; Rattus norvegicus, Platelet, washed platelets, ADP 10 μmol/L, compound 100 μM, single replicates, read-out: Aggregation % of control): 50.4%
activity at 400 µM (washed rat platelets [1]; Rattus norvegicus, Platelet, washed platelets, ADP 10 μmol/L, compound 400 μM, single replicates, read-out: Aggregation % of control): 12%
activity at 800 µM (washed rat platelets [1]; Rattus norvegicus, Platelet, washed platelets, ADP 10 μmol/L, compound 800 μM, single replicates, read-out: Aggregation % of control): 6.7%
level of inhibition relative to naringin (washed rat platelets [1]; washed platelets, ADP 10 μM, 800 μM): 11 fold
ADP-induced platelet aggregation (control group taken as 100%) (washed rat platelets [1]; washed platelets, ADP 10 μM, compound 100 μM): 54.5 ± 6.2%
ADP-induced platelet aggregation (control group taken as 100%) (washed rat platelets [1]; washed platelets, ADP 10 μM, compound 800 μM): 6.3 ± 1.7%
Aggregation (%) (washed rat platelets [1]; washed platelets, ADP 10 μmol/L, compound 100 μM, raw data, single replicates): 35.6% and 34.2% and 43.2% and 37.5% and 36.0% and 44.7%
Aggregation % of control (washed rat platelets [1]; washed platelets, ADP 10 μmol/L, compound 100 μM, single replicates, 100 µM): 48.4 % of control and 61.1 % of control and 53.1 % of control and 51.0 % of control and 63.3 % of control
Aggregation (%) (washed rat platelets [1]; washed platelets, ADP 10 μmol/L, compound 200 μM, raw data, single replicates): 24.7% and 26.3% and 34.7% and 21.2% and 13.9% and 29.4%
Aggregation % of control (washed rat platelets [1]; washed platelets, ADP 10 μmol/L, compound 200 μM, single replicates, 200 µM): 35.0 % of control and 37.2 % of control and 49.1 % of control and 30.0 % of control and 19.7 % of control and 41.6 % of control
Aggregation (%) (washed rat platelets [1]; washed platelets, ADP 10 μmol/L, compound 400 μM, raw data, single replicates): 8.5% and 6.2% and 6.9% and 8.1% and 8.7% and 7.6%
Aggregation % of control (washed rat platelets [1]; washed platelets, ADP 10 μmol/L, compound 400 μM, single replicates, 400 µM): 8.8 % of control and 9.8 % of control and 11.5 % of control and 12.3 % of control and 10.8 % of control
Aggregation (%) (washed rat platelets [1]; washed platelets, ADP 10 μmol/L, compound 800 μM, raw data, single replicates): 4.7% and 3.7% and 5.6% and 6.1% and 3.6% and 3.1%
Aggregation % of control (washed rat platelets [1]; washed platelets, ADP 10 μmol/L, compound 800 μM, single replicates, 800 µM): 5.2 % of control and 7.9 % of control and 8.6 % of control and 5.1 % of control and 4.4 % of control
IC50 (washed rat platelets [2]): ~236 µM
IC50 (washed rat platelets [2]; Rattus norvegicus, Platelet): 236 ± 33.1 µM
Aggregation (%) (washed rat platelets [2]; 100 μM): 32.0% and 39.6% and 43.9% and 35.0% and 27.0% and 45.0%
Aggregation % of control (washed rat platelets [2]; 100 μM): 75.4 % of control and 93.4 % of control and 103.5 % of control and 82.5 % of control and 63.6 % of control and 106.1 % of control
Aggregation (%) (washed rat platelets [2]; 200 μM): 24.1% and 37.0% and 14.9% and 25.4% and 24.3% and 10.0%
Aggregation % of control (washed rat platelets [2]; 200 μM): 56.8 % of control and 87.2 % of control and 35.1 % of control and 59.9 % of control and 57.3 % of control and 23.6 % of control
Aggregation (%) (washed rat platelets [2]; 400 μM): 10.0% and 14.0% and 11.7% and 7.9% and 15.4% and 4.9%
Aggregation % of control (washed rat platelets [2]; 400 μM): 23.6 % of control and 33.0 % of control and 27.6 % of control and 18.6 % of control and 36.3 % of control and 11.6 % of control
Aggregation (%) (washed rat platelets [2]; 800 μM): 7.3% and 9.1% and 9.0% and 4.9% and 4.2% and 14.0%
Aggregation % of control (washed rat platelets [2]; 800 μM): 17.2 % of control and 21.5 % of control and 21.2 % of control and 11.6 % of control and 9.9 % of control and 33.0 % of control
Fibrinogen binding (%) ([3]; 200 μM): 42.78% and 35.40% and 54.20%
fibrinogen binding ([3]; 400 μM): 31.74 ± 5.85%
Fibrinogen binding (%) ([3]; 400 μM): 31.71% and 25.90% and 37.60%
fibrinogen binding ([3]; 800 μM): 20.48 ± 4.63%
Fibrinogen binding (%) ([3]; 800 μM): 21.04% and 15.60% and 24.80%
p-ERK1/2 / t-ERK (ERK1/2 phosphorylation; 100 μM): 0.3358 and 0.4551 and 0.3494
p-ERK1/2 / t-ERK (Fold to ADP only) (ERK1/2 phosphorylation; 100 μM): 0.4798 Fold to ADP only and 0.6502 Fold to ADP only and 0.4991 Fold to ADP only
p-ERK1/2 / t-ERK (ERK1/2 phosphorylation; 200 μM): 0.2390 and 0.3446 and 0.2653
p-ERK1/2 / t-ERK (Fold to ADP only) (ERK1/2 phosphorylation; 200 μM): 0.3414 Fold to ADP only and 0.4923 Fold to ADP only and 0.3790 Fold to ADP only
p-ERK1/2 / t-ERK (ERK1/2 phosphorylation; 400 μM): 0.0291 and 0.2751 and 0.1193
p-ERK1/2 / t-ERK (Fold to ADP only) (ERK1/2 phosphorylation; 400 μM): 0.0416 Fold to ADP only and 0.3930 Fold to ADP only and 0.1704 Fold to ADP only
p-ERK1/2 / t-ERK (ERK1/2 phosphorylation; 800 μM): 0.0106 and 0.1491 and 0.1406
p-ERK1/2 / t-ERK (Fold to ADP only) (ERK1/2 phosphorylation; 800 μM): 0.0152 Fold to ADP only and 0.2129 Fold to ADP only and 0.2008 Fold to ADP only
